The values below come from BindingDB's records for doi:10.1021/jm900472s (Burnham Institute For Medical Research, 2009).

The term IC50 denotes the concentration needed to halve the response being measured. High values mean a need for much substance, low ones inhibition by little substance.

This test concerns the target Apoptosis regulator Bcl-2 (Homo sapiens, UniProt P10415). The experiment in a line: Fluorescence Polarization Assay. The note with it: pH 7.4; 23 °C. The protocol: FPAs were performed using various concentrations of GST-Bcl-2 family proteins, incubated with FITC-conjugated peptide substrates in the presence of inhibitor compound. […] IC50 was determined by fitting the experimental data to a sigmoidal dose-response nonlinear regression model (SigmaPlot 10.0.1, Systat Software, Inc., San Jose, CA). Data reported are the mean of three independent experiments.
A general note: Fluorescence polarisation rises when a labelled molecule tumbles more slowly, as on binding a larger partner.

Apoptosis regulator Bcl-2, sequence (P10415 whole entry): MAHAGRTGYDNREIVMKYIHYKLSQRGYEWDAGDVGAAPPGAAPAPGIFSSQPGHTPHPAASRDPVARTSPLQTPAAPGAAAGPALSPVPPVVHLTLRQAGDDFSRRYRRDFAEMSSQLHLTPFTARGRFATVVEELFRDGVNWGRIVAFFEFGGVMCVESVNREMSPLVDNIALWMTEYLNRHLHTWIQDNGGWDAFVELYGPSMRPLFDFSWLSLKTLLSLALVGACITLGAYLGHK

In turn, `Cc1cc2c(C(C)C)c(O)c(O)cc2c(O)c1-c1c(C)cc2c(C(C)C)c(O)c(O)cc2c1O` [Apogossypol] gave a half-maximal inhibitory concentration (IC50) of 4.3 µM.
